Source: ChEMBL document CHEMBL2440117, “Improved inhibitory activities against tumor-cell migration and invasion by 15-benzylidene substitution derivatives of andrographolide” (Bioorg Med Chem Lett, 2013)
Active and inactive are the calls of the source. No cut-off for these calls is given here.

What was measured:
PC-3 [1] = test: Cytotoxicity against human PC3 cells assessed as growth inhibition at 10 uM after 48 hrs by MTT assay relative to control; format: functional; conditions: for inhibition of growth at 10 µM: PC-3, 48 h, read-out: GI
PC-3 [2] = test: Antimigratory activity against human PC3 cells at 10 uM after 12 to 48 hrs by wound-healing assay relative to control; format: functional
SGC-7901 [3] = test: Cytotoxicity against human SGC7901 cells assessed as growth inhibition at 10 uM after 48 hrs by MTT assay relative to control; format: functional, cell-based
SGC-7901 [4] = test: Antimigratory activity against human SGC7901 cells at 10 uM after 12 to 48 hrs by wound-healing assay relative to control; format: functional
5637 [5] = test: Cytotoxicity against human 5637 cells assessed as growth inhibition at 10 uM after 48 hrs by MTT assay relative to control; format: functional, cell-based
5637 [6] = test: Antimigratory activity against human 5637 cells at 10 uM after 12 to 48 hrs by wound-healing assay relative to control; format: functional
5637 [7] = test: Cytotoxicity against human 5637 cells assessed as growth inhibition at 5 uM after 48 hrs by MTT assay relative to control; format: functional; conditions: Homo sapiens, 5637, 48 h; read-out: GI
5637 [8] = test: Antimigratory activity against human 5637 cells at 5 uM after 12 to 48 hrs by wound-healing assay relative to control; format: functional
SGC-7901 [9] = test: Downregulation of MMP-2 protein expression in human SGC7901 cells at 10 uM after 72 hrs by microscopic analysis; format: functional, cell-based
SGC-7901 [10] = test: Downregulation of MMP-9 protein expression in human SGC7901 cells at 2.5 to 10 uM after 72 hrs by microscopic analysis; format: functional, cell-based
SGC-7901 [11] = test: Downregulation of MMP-7 protein expression in human SGC7901 cells at 2.5 to 10 uM after 72 hrs by microscopic analysis; format: functional, cell-based
SGC-7901 [12] = test: Downregulation of MMP-7 mRNA expression in human SGC7901 cells at 1.25 to 10 uM after 48 hrs by semi-quantitative RT-PCR analysis; format: functional, cell-based
SGC-7901 [13] = test: Downregulation of MMP-9 mRNA expression in human SGC7901 cells at 1.25 to 2.5 uM after 48 hrs by semi-quantitative RT-PCR analysis; format: functional, cell-based
SGC-7901 [14] = test: Downregulation of MMP-2 mRNA expression in human SGC7901 cells at 1.25 uM after 48 hrs by semi-quantitative RT-PCR analysis; format: functional, cell-based
SGC-7901 [15] = test: Antiinvasive activity against human SGC7901 cells after 24 hrs by matrigel invasion assay; format: functional, cell-based; conditions: SGC-7901, 24 h
HT-29 [16] = test: Cytotoxicity against human HT-29 cells assessed as growth inhibition at 10 uM after 48 hrs by MTT assay; format: functional, cell-based
HT-29 [17] = test: Antimigratory activity against human HT-29 cells at 10 uM after 12 to 48 hrs by wound-healing assay relative to control; format: functional
ECa-109 [18] = test: Cytotoxicity against human EC109 cells assessed as growth inhibition at 10 uM after 48 hrs by MTT assay; format: functional, cell-based
[19] = (§1) Antimigratory activity against human EC109 cells at 10 uM after 12 to 48 hrs by wound-healing assay relative to control; format: functional; conditions: ECa-109
A549 [20] = test: Cytotoxicity against human A549 cells assessed as growth inhibition at 10 uM after 48 hrs by MTT assay; format: functional, cell-based
A549 [21] = test: Antimigratory activity against human A549 cells at 10 uM after 12 to 48 hrs by wound-healing assay relative to control; format: functional
SGC-7901 [22] = test: Antimigratory activity against human SGC7901 cells after 12 to 48 hrs by wound-healing assay; format: functional, cell-based
SGC-7901 [23] = test: Downregulation of MMP-9 mRNA expression in human SGC7901 cells at 10 uM after 48 hrs by semi-quantitative RT-PCR analysis; format: functional, cell-based
SGC-7901 [24] = test: Effect on MMP-2 mRNA expression in human SGC7901 cells at 10 uM after 48 hrs by semi-quantitative RT-PCR analysis; format: functional, cell-based
SGC-7901 [25] = test: Downregulation of MMP-7 mRNA expression in human SGC7901 cells after 48 hrs by semi-quantitative RT-PCR analysis; format: functional, cell-based
SGC-7901 [26] = test: Antiinvasive activity against human SGC7901 cells at 5 to 10 uM after 24 hrs by matrigel invasion assay relative to control; format: functional, cell-based
SGC-7901 [27] = test: Antiinvasive activity against human SGC7901 cells at 10 uM after 24 hrs by matrigel invasion assay relative to control; format: functional; conditions: SGC-7901, 24 h
ECa-109 [28] = test: as §1; format: functional
A549 [29] = test: Antimigratory activity against human A549 cells at 5 uM after 12 to 48 hrs by wound-healing assay relative to control; format: functional
5637 [30] = test: Antimigratory activity against human 5637 cells at 2.5 uM after 12 to 48 hrs by wound-healing assay; format: functional, cell-based
A549 [31] = test: Antimigratory activity against human A549 cells after 12 to 48 hrs by wound-healing assay; format: functional, cell-based

SMILES	growth inhibition (GI) (PC-3 [1])	inhibition (PC-3 [2])	growth inhibition (GI) (SGC-7901 [3])	inhibition (SGC-7901 [4])	growth inhibition (GI) 5637 [5]	inhibition of growth at 5 µM 5637 [7] [%]	inhibition at 5 µM 5637 [8] [%]	growth inhibition (GI) (HT-29 [16])	growth inhibition (GI) (ECa-109 [18])	growth inhibition (GI) (A549 [20])	inhibition at 10 µM (PC-3 [2]) [%]	further results
C[C@]1(CO)[C@H]2CC[C@@]3(CO3)[C@@H](/C=C/C3=CCOC3=O)[C@]2(C)CC[C@H]1O	inactive	inactive	inactive	inactive	inactive							inhibition at 10 µM 5637 [6]: 22.5%
C[C@@]12COCO[C@@H]1CC[C@]1(C)[C@@H]2CC[C@@]2(CO2)[C@H]1C/C=C1/C(=O)OC[C@H]1O	inactive	inactive	inactive	inactive		32.9	18.4					
C=C1CC[C@@H]2[C@](C)(CO)[C@H](O)CC[C@@]2(C)[C@@H]1/C=C/C1=CC(=C/c2ccc(Cl)cc2)/OC1=O			inactive			25.3	16.4	inactive	inactive	inactive	58.5	Activity (SGC-7901 [9]): Active; Activity (SGC-7901 [10]): Active; Activity (SGC-7901 [11]): Active; Activity (SGC-7901 [12]): Active; Activity (SGC-7901 [13]): Active; Activity (SGC-7901 [14]): Active; IC50 (SGC-7901 [15]): 4.6 µM; inhibition at 10 µM (HT-29 [17]): 48.1%; inhibition at 10 µM [19]: 40.7%; inhibition at 10 µM (A549 [21]): 41.4%; inhibition of growth at 10 µM (PC-3 [1]): 11.3%; IC50 (SGC-7901 [22]): 4.3 µM
C=C1CC[C@@H]2[C@]3(C)COCO[C@@H]3CC[C@@]2(C)[C@@H]1C/C=C1/C(=O)OC[C@H]1O	inactive	inactive	inactive	inactive		25.3	36.3					
C=C1CC[C@@H]2[C@](C)(CO)[C@H](O)CC[C@@]2(C)[C@@H]1/C=C/C1=CCOC1=O	inactive	inactive	inactive	inactive	inactive							inhibition at 10 µM 5637 [6]: 44.7%
C=C1CC[C@@H]2[C@](C)(CO)[C@H](O)CC[C@@]2(C)[C@@H]1C/C=C1/C(=O)OC[C@H]1O [ANDROGRAPHOLIDE]	inactive	inactive	inactive			44	34.5	inactive	inactive	inactive		Activity (SGC-7901 [23]): Active; Activity (SGC-7901 [24]): inactive; Activity (SGC-7901 [25]): Dose-dependent effect; inhibition (SGC-7901 [26]): Active; inhibition at 10 µM (SGC-7901 [27]): 17.7%; inhibition (HT-29 [17]): inactive; inhibition (ECa-109 [28]): inactive; inhibition at 5 µM (A549 [29]): 28.6%; inhibition at 10 µM (SGC-7901 [4]): 20.8%; inhibition 5637 [30]: inactive
C=C1CC[C@@H]2[C@](C)(CO)[C@H](O)CC[C@@]2(C)[C@@H]1/C=C/C1=CC(=C/c2ccc(F)cc2)/OC1=O	inactive		inactive			32.5	19.5	inactive	inactive	inactive	34.3	inhibition at 10 µM (HT-29 [17]): 39.5%; inhibition at 10 µM [19]: 34.2%; IC50 (A549 [31]): 7.2 µM; IC50 (SGC-7901 [22]): 8 µM
C=C1CC[C@@H]2[C@](C)(COC(=O)c3cccnc3)[C@H](OC(=O)c3cccnc3)CC[C@@]2(C)[C@@H]1/C=C/C1=CCOC1=O	inactive	inactive	inactive	inactive	inactive							inhibition at 10 µM 5637 [6]: 31.7%
C=C1CC[C@@H]2[C@](C)(CO)[C@H](O)CC[C@@]2(C)[C@@H]1/C=C/C1=CC(=C/c2ccc(OC)cc2)/OC1=O	inactive		inactive			33.7	17.9	inactive	inactive	inactive	34	inhibition at 10 µM (HT-29 [17]): 38.7%; inhibition at 10 µM [19]: 41.3%; inhibition at 10 µM (A549 [21]): 35.1%; inhibition at 10 µM (SGC-7901 [4]): 48.5%
C=C1CC[C@@H]2[C@](C)(COC(=O)CCC(=O)O)[C@H](OC(=O)CCC(=O)O)CC[C@@]2(C)[C@@H]1/C=C/C1=CC(=C/c2ccc(Cl)cc2)/OC1=O	inactive	inactive	inactive	inactive	inactive							inhibition 5637 [6]: inactive
C=C1CC[C@@H]2[C@](C)(COC(=O)CCC(=O)O)[C@H](OC(=O)CCC(=O)O)CC[C@@]2(C)[C@@H]1/C=C/C1=CCOC1=O	inactive	inactive	inactive	inactive	inactive							inhibition 5637 [6]: inactive
C=C1CC[C@@H]2[C@](C)(CO)[C@H](O)CC[C@@]2(C)[C@@H]1/C=C/C1=CC(=C/c2ccc(Br)cc2)/OC1=O			inactive			33.6	27.9				83.8	inhibition of growth at 10 µM (PC-3 [1]): 40.2%; IC50 (SGC-7901 [22]): 8.6 µM
